Experiments:
[1] = biological target: T1, human adenosine-A2A receptors (Homo sapiens, UniProt P29274); experiment: In vitro affinity for human adenosine-A2A receptors, [3H]CGS 21680 radioligand binding; settings: human recombinant receptors expressed in HEK-293 cells, read-out: Adenosine receptor affinity A2A pKi (converted)
T1 construct: expressed in transfected cells; host or cells: HEK-293 cells
Experimental: Affinity of the compounds for human adenosine-A2A receptors was determined using the receptor binding assay described by D. R. Luthin et al. (Mol. Pharmacol., 47, 307, 1995), using human recombinant receptors expressed in HEK-293 cells, and [^3H]CGS 21680 as radioligand.

[2] = biological target: T2, human adenosine-A1 receptors (Homo sapiens, UniProt P30542); experiment: In vitro affinity for human adenosine-A1 receptors, [3H]DPCPX radioligand binding; settings: human recombinant receptors expressed in CHO cells, read-out: Adenosine receptor affinity A1 pKi (converted)
T2 construct: expressed in transfected cells; host or cells: CHO cells
T2 sequence (P30542 1-326): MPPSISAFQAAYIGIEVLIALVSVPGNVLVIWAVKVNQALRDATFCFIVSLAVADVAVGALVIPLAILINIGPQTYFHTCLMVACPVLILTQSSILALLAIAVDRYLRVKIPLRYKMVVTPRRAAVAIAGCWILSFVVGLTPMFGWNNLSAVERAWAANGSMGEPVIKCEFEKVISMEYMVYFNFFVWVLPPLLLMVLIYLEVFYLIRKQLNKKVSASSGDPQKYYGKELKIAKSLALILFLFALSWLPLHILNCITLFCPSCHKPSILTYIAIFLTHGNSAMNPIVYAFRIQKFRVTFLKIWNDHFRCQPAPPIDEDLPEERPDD
Experimental: Affinity of the compounds for human adenosine-A1 receptors was determined using the receptor binding assay described by A. Townsend-Nicholson and P. R. Schofield (Biol. Chem., 269, 2373, 1994), using human recombinant receptors expressed in CHO cells, and [^3H]DPCPX as radioligand.

[3] = biological target: T3, human adenosine-A3 receptor (Homo sapiens, UniProt P0DMS8); experiment: In vitro affinity for human adenosine-A3 receptors, [125I]-AB-MECA radioligand binding; settings: human recombinant (HEK 293) cell membranes, read-out: Adenosine receptor affinity A3 pKi (converted)
T3 construct: expressed in transfected cells; membrane preparations
T3 sequence (P0DMS8 1-318): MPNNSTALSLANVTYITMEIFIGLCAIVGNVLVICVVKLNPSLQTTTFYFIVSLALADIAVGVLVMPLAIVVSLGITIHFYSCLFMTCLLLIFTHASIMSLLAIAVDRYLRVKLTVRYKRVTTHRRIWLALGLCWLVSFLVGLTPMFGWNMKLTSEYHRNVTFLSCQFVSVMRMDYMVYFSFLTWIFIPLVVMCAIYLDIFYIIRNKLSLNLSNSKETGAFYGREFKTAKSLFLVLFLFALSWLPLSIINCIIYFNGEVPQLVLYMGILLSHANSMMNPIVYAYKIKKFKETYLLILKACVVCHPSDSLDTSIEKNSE
Experimental: Affinity of the compounds for human adenosine-A3 receptors was determined using the receptor binding assay described by C. A. Salvatore et al.: “Molecular cloning and characterization of the human A3 adenosine receptor”, Proc. Natl. Acad. Sci. USA, 90, 10365-10369, 1993. Briefly, membrane preparations were obtained from human recombinant (HEK 293) cells in which the human adenosine-A3 receptor was stably expressed. Membranes were incubated at 22° C. for 90 minutes with [^125I]-AB-MECA in the absence or presence of test compounds in a concentration range from 10 μM down to 0.1 nM, diluted in a suitable buffer. Separation of bound radioactivity from free was done by filtration through Packard GF/B glass fiber filters with several washings with ice-cold buffer using a Packard cell harvester. Bound radioactivity was measured with a scintillation counter (Topcount, Packard) using a liquid scintillation cocktail (Microscint 0, Packard). Measured radioactivity was plotted against the concentration of the displacing test compound and displacement curves were calculated by four-parameter logistic regression, resulting in IC50 values, i.e. that concentration of displacing compound by which 50% of the radioligand is displaced. […]

T1 sequence (P29274 whole entry): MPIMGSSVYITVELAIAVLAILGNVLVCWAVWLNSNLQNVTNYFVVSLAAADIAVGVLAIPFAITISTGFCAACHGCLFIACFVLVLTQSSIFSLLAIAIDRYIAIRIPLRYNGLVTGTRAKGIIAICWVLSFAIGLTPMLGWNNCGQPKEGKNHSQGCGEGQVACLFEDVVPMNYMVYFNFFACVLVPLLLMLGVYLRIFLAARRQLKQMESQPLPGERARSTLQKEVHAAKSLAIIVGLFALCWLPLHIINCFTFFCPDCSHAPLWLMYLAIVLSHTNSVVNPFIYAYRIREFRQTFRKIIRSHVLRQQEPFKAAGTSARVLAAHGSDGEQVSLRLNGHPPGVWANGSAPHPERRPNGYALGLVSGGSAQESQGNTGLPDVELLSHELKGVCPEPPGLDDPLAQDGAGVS

Ki [1]	Ki [2]	melting point	Ki [3]	SMILES
1 µM				COc1ccc(C=NNc2cc(N)c3ncn(C)c3n2)cc1 [Compound 5, 2-(4-methoxy-2-benzylhydrazon)-6-amino-9-methyl-1-deazapurine]
3.16 µM	2.51 µM	182.1 °C		Cn1cnc2c(N)cc(NN=CCc3ccccc3)nc21 [Compound 3, 2-(2-phenylethyl-hydrazone)-6-amino-9-methyl-1-deazapurine]
1.26 µM	3.98 µM	231.7 to 232.8 °C	2.51 µM	Cn1cnc2c(N)cc(NN=Cc3ccccc3)nc21 [Compound 4, 2-benzylhydrazone-6-amino-9-methyl-1-deazapurine]
15.8 µM		169.9 °C		Cn1cnc2c(N)cc(N3OC4C=CC3CC4)nc21 (stereo not drawn) [Compound 1, 2-(2-oxa-3-azabicyclo[2.2.2]oct-5-en-3-yl)-6-amino-9-methyl-1-deazapurine]
2 µM	6.31 µM			COc1ccc(C=NNc2cc(N)c3ncn(C)c3n2)c(OC)c1 [Compound 6, 2-(2,4-dimethoxy-2-benzylhydrazon)-6-amino-9-methyl-1-deazapurine]
2 µM	3.16 µM			Cn1cnc2c(N)cc(NN=CC3CCCCC3)nc21 [Compound 8, 2-(cyclohexylmethyl-hydrazone)-6-amino-9-methyl-1-deaza-purine]
7.94 µM				Cn1cnc2c(N)cc(N[C@H]3CC[C@@H](O)CC3)nc21 [Compound 2, 2-(cis-4-hydroxycyclohexylamino)-6-amino-9-methyl-1-deazapurine]

Reference: patent US7338964B2, “2-substituted-1-deaza purine derivatives with adenosine receptor modulating activity” (Solvay Pharmaceuticals, B.V., priority 2004, dated 2008)
